Tests used:
IKKε = target: T1, IKKε (Homo sapiens, UniProt Q14164); assay: IKKε biochemical assay; conditions: 10 point 1:4 dose response, 30 uM top concentration, 90 min at 25° C., LabChip EZ Reader II; read-out: IKKε_IC50
T1 sequence (Q14164 1-716): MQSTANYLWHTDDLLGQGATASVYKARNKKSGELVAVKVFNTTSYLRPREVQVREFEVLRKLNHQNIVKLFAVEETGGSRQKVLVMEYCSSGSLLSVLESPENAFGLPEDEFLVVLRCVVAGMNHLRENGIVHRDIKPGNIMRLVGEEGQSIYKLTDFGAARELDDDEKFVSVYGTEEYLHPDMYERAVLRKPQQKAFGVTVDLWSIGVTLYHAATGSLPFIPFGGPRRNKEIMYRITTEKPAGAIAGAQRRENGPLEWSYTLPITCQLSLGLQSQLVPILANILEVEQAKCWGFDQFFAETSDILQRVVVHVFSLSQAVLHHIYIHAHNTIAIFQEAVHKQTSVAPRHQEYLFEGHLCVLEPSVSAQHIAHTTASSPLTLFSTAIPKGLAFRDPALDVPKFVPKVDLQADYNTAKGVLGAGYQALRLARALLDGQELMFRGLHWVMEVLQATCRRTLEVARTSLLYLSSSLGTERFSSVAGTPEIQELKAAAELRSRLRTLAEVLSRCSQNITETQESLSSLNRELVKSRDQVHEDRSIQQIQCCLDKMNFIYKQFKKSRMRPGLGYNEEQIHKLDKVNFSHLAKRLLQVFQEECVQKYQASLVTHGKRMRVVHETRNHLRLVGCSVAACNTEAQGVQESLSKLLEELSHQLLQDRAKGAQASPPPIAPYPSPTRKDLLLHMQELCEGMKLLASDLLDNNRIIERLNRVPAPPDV
In short: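 Compounds in 1% DMSO final were incubated with IKKε enzyme and substrate at 25° C. for 90 min, then stopped. Substrate and product peaks were resolved by LabChip EZ Reader II mobility-shift read-out. Staurosporine at 10 uM final served as the full-inhibition control.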

TBK1 = target: T2, TBK1 (Homo sapiens, UniProt Q9UHD2); assay: TBK biochemical assay; conditions: 10 point 1:4 dose response, 30 uM top concentration, 90 min at 25° C., LabChip EZ Reader II; read-out: TBK1_IC50
T2 sequence (Q9UHD2 1-729): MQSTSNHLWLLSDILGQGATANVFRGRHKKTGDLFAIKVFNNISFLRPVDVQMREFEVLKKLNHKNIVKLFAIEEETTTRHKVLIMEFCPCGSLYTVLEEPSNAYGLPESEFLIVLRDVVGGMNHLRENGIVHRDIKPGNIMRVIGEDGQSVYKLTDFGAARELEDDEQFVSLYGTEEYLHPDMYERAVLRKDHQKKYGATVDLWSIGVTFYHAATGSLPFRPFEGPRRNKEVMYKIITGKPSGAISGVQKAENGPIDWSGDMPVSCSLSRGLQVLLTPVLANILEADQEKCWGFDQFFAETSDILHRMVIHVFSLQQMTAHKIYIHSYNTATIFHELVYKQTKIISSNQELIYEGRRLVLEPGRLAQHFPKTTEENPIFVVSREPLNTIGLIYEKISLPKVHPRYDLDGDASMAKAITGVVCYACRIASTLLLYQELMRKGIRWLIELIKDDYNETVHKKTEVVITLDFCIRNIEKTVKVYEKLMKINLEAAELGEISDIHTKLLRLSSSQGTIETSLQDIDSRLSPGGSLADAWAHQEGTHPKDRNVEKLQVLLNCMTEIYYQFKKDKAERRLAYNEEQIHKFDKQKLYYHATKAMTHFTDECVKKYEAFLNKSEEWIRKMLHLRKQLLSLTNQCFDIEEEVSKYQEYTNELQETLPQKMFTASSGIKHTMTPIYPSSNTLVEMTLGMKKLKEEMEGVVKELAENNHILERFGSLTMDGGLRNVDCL
In short: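 Substrate and product were separated and quantified by microfluidic mobility-shift read (LabChip). 10 uM staurosporine served as the full-inhibition control, and the reference compound was tested from 1 uM final.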

Row | Structure (SMILES) | IC50 (IKKε) [µM] | IC50 (TBK1) [µM]
1 | COc1nc(Nc2nccc(-c3ccc(OC4CCOCC4)c(C#N)c3)n2)ccc1N1CCN(CCO)CC1 [Example 167, 5-[2-([5-[4-(2-hydroxyethyl)piperazin-1-yl]-6-methoxypyridin-2-yl]amino)pyrimidin-4-yl]-2-(oxan-4-yloxy)benzonitrile] | < 0.1 | < 0.1
2 | C[C@H](O)C(=O)N1CCC(Oc2ccc(-c3ccnc(Nc4ccc(N5CCOCC5)cc4)n3)cc2C#N)C(F)(F)C1 (stereo partly drawn) [Example 216, 2-([3,3-difluoro-1-[(2S)-2-hydroxypropanoyl]piperidin-4-yl]oxy)-5-(2-[[4-(morpholin-4-yl)phenyl]amino]pyrimidin-4-yl)benzonitrile] | < 0.1 | < 0.1
3 | COc1nc(Nc2nccc(-c3ccc(N4CC5(CCN(C(=O)[C@@H](O)CO)CC5)C4)c(C#N)c3)n2)ccc1N1CCN(C2COC2)CC1 [Example 315, 2-[7-((S)-2,3-Dihydroxy-propionyl)-2,7-diaza-spiro[3.5]non-2-yl]-5-{2-[6-methoxy-5-(4-oxetan-3-yl-piperazin-1-yl)-pyridin-2-ylamino]-pyrimidin-4-yl}-benzonitrile] | < 0.1 | < 0.1
4 | COc1nc(Nc2nccc(-c3ccc(OC4CCOCC4)c(C#N)c3)n2)ccc1C(=O)N1CCS(=O)(=O)CC1 [Example 5, 5-{2-[5-(1,1-Dioxo-thiomorpholine-4-carbonyl)-6-methoxy-pyridin-2-ylamino]-pyrimidin-4-yl}-2-(tetrahydro-pyran-4-yloxy)-benzonitrile] | < 0.1 | < 0.1
5 | N#Cc1cc(-c2ccnc(Nc3cccc(C4CCN(C5COC5)CC4)c3)n2)ccc1OC1CCN(C(=O)CO)CC1(F)F (stereo not shown) [Example 223, 2-[3,3-Difluoro-1-(2-hydroxy-acetyl)-piperidin-4-yloxy]-5-{2-[3-(1-oxetan-3-yl-piperidin-4-yl)-phenylamino]-pyrimidin-4-yl}-benzonitrile] | < 0.1 | < 0.1
6 | N#Cc1cc(-c2ccnc(Nc3ccc(N4CCN(C5COC5)CC4)cn3)n2)ccc1OC1CCOCC1 [Example 165, 5-{2-[5-(4-Oxetan-3-yl-piperazin-1-yl)-pyridin-2-ylamino]-pyrimidin-4-yl}-2-(tetrahydro-pyran-4-yloxy)-benzonitrile] | < 0.1 | < 0.1
7 | COc1nc(Nc2nccc(-c3ccc(O[C@H]4CCN(C(=O)[C@H](C)O)CC4(F)F)c(C#N)c3)n2)ccc1N1CCN(C2COC2)CC1 [Example 120, 2-([3,3-difluoro-1-[(2S)-2-hydroxypropanoyl]piperidin-4-yl]oxy)-5-[2-([6-methoxy-5-[4-(oxetan-3-yl)piperazin-1-yl]pyridin-2-yl]amino)pyrimidin-4-yl]benzonitrile] | < 0.1 | < 0.1
8 | COc1nc(Nc2nccc(-c3ccc(OC4CCN(C(=O)[C@H](C)O)CC4(F)F)c(C#N)c3)n2)ccc1N1CCN(C)CC1C (stereo in doubt) [Example 112, 2-[3,3-Difluoro-1-((S)-2-hydroxy-propionyl)-piperidin-4-yloxy]-5-{2-[5-((S)-2,4-dimethyl-piperazin-1-yl)-6-methoxy-pyridin-2-ylamino]-pyrimidin-4-yl}-benzonitrile] | < 0.1 | < 0.1
9 | CN(C)C(=O)c1ccc(Nc2nccc(-c3ccc(OC4CCOCC4)c(C#N)c3)n2)cn1 [Example 23, 5-([4-[3-cyano-4-(oxan-4-yloxy)phenyl]pyrimidin-2-yl]amino)-N,N-dimethylpyridine-2-carboxamide] | < 0.1 | < 0.1
10 | N#Cc1cc(-c2ccnc(Nc3ccccc3)n2)ccc1OC1CCN(C(=O)[C@@H](O)CO)CC1(F)F (stereo partly drawn) [Example 210, 2-[1-((S)-2,3-Dihydroxy-propionyl)-3,3-difluoro-piperidin-4-yloxy]-5-(2-phenylamino-pyrimidin-4-yl)-benzonitrile] | < 0.1 | < 0.1
11 | COc1nc(Nc2nccc(-c3ccc(OC4CCOCC4)c(C#N)c3)n2)ccc1C(=O)NC1CCCC1O (stereo not shown) [Example 9, 6-{4-[3-Cyano-4-(tetrahydro-pyran-4-yloxy)-phenyl]-pyrimidin-2-ylamino}-N-(2-hydroxy-cyclopentyl)-2-methoxy-nicotinamide] | < 0.1 | < 0.1
12 | COc1cc(Nc2nccc(-c3ccc(OC4CCOCC4)c(C#N)c3)n2)cnc1N1CCN(C)CC1 [Example 54, 5-(2-[[5-methoxy-6-(4-methylpiperazin-1-yl)pyridin-3-yl]amino]pyrimidin-4-yl)-2-(oxan-4-yloxy)benzonitrile] | < 0.1 | < 0.1
13 | COc1nc(Nc2nccc(-c3ccc(OC4CCOCC4)c(C#N)c3)n2)ccc1C(=O)N1C2COCC1CC(O)C2 (stereo not shown) [Example 17, 5-(2-[[5-([7-hydroxy-3-oxa-9-azabicyclo[3.3.1]nonan-9-yl]carbonyl)-6-methoxypyridin-2-yl]amino]pyrimidin-4-yl)-2-(oxan-4-yloxy)benzonitrile] | < 0.1 | < 0.1
14 | COc1nc(Nc2nccc(-c3ccc(OC4CCN(C(=O)CO)CC4(F)F)c(C#N)c3)n2)ccc1N1CCN(C)CC1 (stereo not shown) [Example 99, 2-[[3,3-difluoro-1-(2-hydroxyacetyl)piperidin-4-yl]oxy]-5-(2-[[6-methoxy-5-(4-methylpiperazin-1-yl)pyridin-2-yl]amino]pyrimidin-4-yl)benzonitrile] | < 0.1 | < 0.1
15 | COc1nc(Nc2nccc(-c3ccc(OC4CCN(C(=O)[C@@H](O)C(C)C)CC4(F)F)c(C#N)c3)n2)ccc1C1CCN(C2COC2)CC1 (stereo partly drawn) [Example 236, 2-[3,3-Difluoro-1-((S)-2-hydroxy-3-methyl-butyryl)-piperidin-4-yloxy]-5-[2-(2-methoxy-1′-oxetan-3-yl-1′,2′,3′,4′,5′,6′-hexahydro-[3,4′]bipyridinyl-6-ylamino)-pyrimidin-4-yl]-benzonitrile] | < 0.1 | < 0.1
16 | COc1nc(Nc2nccc(-c3ccc(OC4CCNCC4(F)F)c(C#N)c3)n2)ccc1N1CCN(C2COC2)CC1 (stereo not shown) [Example 119] | < 0.1 | < 0.1
17 | COc1nc(Nc2nccc(-c3ccc(OC4CCN(C(=O)c5n[nH]c(C)n5)CC4)c(C#N)c3)n2)ccc1N1CCN(C)CC1 [Example 94, 5-(2-[[6-methoxy-5-(4-methylpiperazin-1-yl)pyridin-2-yl]amino]pyrimidin-4-yl)-2-([1-[(5-methyl-1H-1,2,4-triazol-3-yl)carbonyl]piperidin-4-yl]oxy)benzonitrile] | < 0.1 | < 0.1
18 | COc1nc(Nc2nccc(-c3ccc(OC4CCOC4)c(C#N)n3)n2)ccc1C(=O)N(C)C (stereo not shown) [Example 68, 6-([4-[6-cyano-5-(oxolan-3-yloxy)pyridin-2-yl]pyrimidin-2-yl]amino)-2-methoxy-N,N-dimethylpyridine-3-carboxamide] | < 0.1 | < 0.1
19 | COc1nc(Nc2nccc(-c3ccc(OC4CCNCC4C)c(C#N)c3)n2)ccc1N1CCN(C2COC2)CC1 (stereo not shown) [Example 270, 5-{2-[6-Methoxy-5-(4-oxetan-3-yl-piperazin-1-yl)-pyridin-2-ylamino]-pyrimidin-4-yl}-2-(3-methyl-piperidin-4-yloxy)-benzonitrile] | < 0.1 | < 0.1
20 | C[C@H](O)C(=O)N1CC[C@H](Oc2ccc(-c3nc(Nc4ccc(N5CCN(C6COC6)CC5)cc4)ncc3F)cc2C#N)[C@H](F)C1 [Example 296, 2-({3-fluoro-1-[(2S)-2-hydroxypropanoyl]piperidin-4-yl}oxy)-5-[5-fluoro-2-({4-[4-(oxetan-3-yl)piperazin-1-yl]phenyl}amino)pyrimidin-4-yl]benzonitrile] | < 0.1 | < 0.1
